From patent publication US20120053168A1, “FUSED BENZOAZEPINES AS NEURONAL NICOTINIC ACETYLCHOLINE RECEPTOR LIGANDS” (Targacept, Inc., priority 2009, published 2012)

Assays:
normal rats = experiment: Novel Object Recognition (NOR) task; assay type: in vivo, rat
Experimental: Episodic memory is a cognitive domain known to be impaired in Alzheimer's disease; the Novel Object Recognition task is a commonly used and quick, clean model used to assess potential cognitive benefit derived from the test compounds. Compound A (7,8,9,10-tetrahydro-6H-azepino[4,5-g]quinoxaline) improved long-term visual episodic/declarative memory as assessed by novel object recognition (NOR) task following oral dosing in normal rats. Memory was assessed by using the three-trial object recognition test. On the first day (exploratory trial), rats were allowed to explore an open arena (44.5×44.5×30.5 cm) for 6 min. On the second day (acquisition trial), rats were allowed to explore the same arena in the presence of two identical objects (both object A) for 3 minutes. On the third day (retention or recall trial), performance was evaluated by allowing the same animal to re-explore the arena for 3 minutes in the presence of two different objects: the familiar object A and a novel object B. An inter-trial interval of 24 hours was imposed between the three NOR trials. Recognition memory was assessed by comparing the time spent exploring a novel (object B) versus a familiar (object A) object during the recall trial. Recognition index was assessed for each animal and expressed as a ratio ((time B/time A+time B)×100).
Compound A was evaluated for its duration of effect in the NOR task in normal rats. Using similar experimental procedures as described earlier, 0.03, 0.1, and 0.3 mg/kg (0.15, 0.5 and 1.51 μmol/kg) Compound A was orally administered to animals 30 minutes prior to placement in the arena for the exploratory and acquisition trials. For the recall trial (i.e., third day of dosing), animals were placed in the arena at 6 h, post administration.
A follow-up NOR study evaluated the duration of effect of Compound A following a 6 h pre-treatment prior to the recall trial.

[1] = target: T1, human muscle nAChR subtype (Homo sapiens, UniProt P02708+P07510+Q07001); experiment: 86Rb+ efflux in TE671/RD cells (human muscle nAChR subtype); assay type: cell-based
T1 construct: endogenous in cells; host or cells: TE671/RD human rhabdomyosarcoma cells
T1 sequence (P02708 21-457): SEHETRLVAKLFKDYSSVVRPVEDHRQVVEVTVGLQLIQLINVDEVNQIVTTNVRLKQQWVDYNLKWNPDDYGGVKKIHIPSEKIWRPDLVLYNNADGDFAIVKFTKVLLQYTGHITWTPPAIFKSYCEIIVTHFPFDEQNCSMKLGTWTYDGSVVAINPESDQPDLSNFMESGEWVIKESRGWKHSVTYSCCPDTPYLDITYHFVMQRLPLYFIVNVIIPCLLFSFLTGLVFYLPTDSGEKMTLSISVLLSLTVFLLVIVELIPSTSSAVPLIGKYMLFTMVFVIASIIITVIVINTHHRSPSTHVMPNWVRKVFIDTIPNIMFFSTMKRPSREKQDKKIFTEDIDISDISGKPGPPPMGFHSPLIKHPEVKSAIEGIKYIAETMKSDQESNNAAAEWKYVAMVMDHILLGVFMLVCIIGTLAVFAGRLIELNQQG
T1 sequence (P07510 23-517): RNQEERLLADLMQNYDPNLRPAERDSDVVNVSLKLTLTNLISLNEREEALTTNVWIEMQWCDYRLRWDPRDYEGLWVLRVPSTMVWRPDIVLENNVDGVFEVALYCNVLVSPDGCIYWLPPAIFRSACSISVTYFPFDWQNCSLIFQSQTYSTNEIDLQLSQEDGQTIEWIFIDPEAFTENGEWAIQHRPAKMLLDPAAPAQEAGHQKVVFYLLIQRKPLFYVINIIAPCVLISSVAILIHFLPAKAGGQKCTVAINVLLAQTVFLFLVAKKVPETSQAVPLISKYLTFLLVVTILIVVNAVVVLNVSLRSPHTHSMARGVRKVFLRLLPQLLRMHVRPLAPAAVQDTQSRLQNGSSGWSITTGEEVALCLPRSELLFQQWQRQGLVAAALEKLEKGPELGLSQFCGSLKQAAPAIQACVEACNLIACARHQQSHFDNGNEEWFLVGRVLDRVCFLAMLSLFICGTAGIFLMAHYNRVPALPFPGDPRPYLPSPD
T1 sequence (Q07001 22-517): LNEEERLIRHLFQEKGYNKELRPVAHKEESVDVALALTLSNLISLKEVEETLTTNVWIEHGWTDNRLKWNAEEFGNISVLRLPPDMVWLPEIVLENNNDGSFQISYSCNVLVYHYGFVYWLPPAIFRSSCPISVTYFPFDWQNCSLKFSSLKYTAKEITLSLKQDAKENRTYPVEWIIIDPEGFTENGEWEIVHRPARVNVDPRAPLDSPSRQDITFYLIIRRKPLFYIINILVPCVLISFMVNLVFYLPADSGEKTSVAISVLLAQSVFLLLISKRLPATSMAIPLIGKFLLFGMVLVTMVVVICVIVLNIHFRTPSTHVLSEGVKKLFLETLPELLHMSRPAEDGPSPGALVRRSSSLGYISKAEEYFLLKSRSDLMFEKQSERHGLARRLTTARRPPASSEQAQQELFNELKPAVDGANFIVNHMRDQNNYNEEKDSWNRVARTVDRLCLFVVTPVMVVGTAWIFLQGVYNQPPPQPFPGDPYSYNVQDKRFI
T1 sequence (P11230 24-501 partner): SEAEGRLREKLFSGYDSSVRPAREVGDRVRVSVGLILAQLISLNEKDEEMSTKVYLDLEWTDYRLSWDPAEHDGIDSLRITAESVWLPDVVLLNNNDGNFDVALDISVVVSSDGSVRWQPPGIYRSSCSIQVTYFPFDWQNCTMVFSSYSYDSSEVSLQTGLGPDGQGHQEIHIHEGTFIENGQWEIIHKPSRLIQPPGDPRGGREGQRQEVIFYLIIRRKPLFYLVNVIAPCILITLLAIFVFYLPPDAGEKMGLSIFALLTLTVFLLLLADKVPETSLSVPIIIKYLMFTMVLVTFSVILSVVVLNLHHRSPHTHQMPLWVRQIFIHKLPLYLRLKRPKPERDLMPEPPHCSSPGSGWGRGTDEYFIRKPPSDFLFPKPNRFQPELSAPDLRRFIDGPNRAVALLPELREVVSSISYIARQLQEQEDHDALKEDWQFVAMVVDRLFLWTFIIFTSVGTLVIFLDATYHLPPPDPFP
Excerpt: Example 7: Interaction at the Human Muscle nAChR Subtype
Activation of muscle-type nAChRs was established on the human clonal line TE671/RD, which is derived from an embryonal rhabdomyosarcoma (Stratton et al., Carcinogen 10: 899 (1989)). These cells express receptors that have pharmacological (Lukas, J. Pharmacol. Exp. Ther. 251: 175 (1989)), electrophysiological (Oswald et al., Neurosci. Lett. 96: 207 (1989)), and molecular biological profiles (Luther et al., J. Neurosci. 9: 1082 (1989)) similar to the muscle-type nAChR.
TE671/RD cells were maintained in proliferative growth phase according to routine protocols (Bencherif et al., Mol. Cell. Neurosci. 2: 52 (1991) and Bencherif et al., J. Pharmacol. Exp. Ther. 257: 946 (1991)). […]
Nicotinic acetylcholine receptor (nAChR) function was assayed using ^86Rb^+efflux according to the method described by Lukas et al., Anal. Biochem. 175: 212 (1988). […] Scintillation fluid was added and released radioactivity was measured by liquid scintillation counting. […]
When appropriate, dose-response curves of test compound were determined. The maximal activation for individual compounds (Emax) was determined as a percentage of the maximal activation induced by L-nicotine. The compound concentration resulting in half maximal activation (EC50) of specific ion flux was also determined.

c1cnc2cc3c(cc2n1)CCNCC3 [Compound A, 7,8,9,10-tetrahydro-6H-azepino[4,5-g]quinoxaline]
recognition index (normal rats; 0.03 mg/kg (0.15 μmol/kg) p.o., 6 h pre-treatment prior to the recall trial, vehicle 52±0.5%): 64±3% | recognition index (normal rats; 0.3 mg/kg (1.5 μmol/kg) p.o., 30 minutes before the three trials, vehicle 50±0.5%): 69±5% | recognition index (normal rats; 0.3 mg/kg (1.5 μmol/kg) p.o., 6 h pre-treatment prior to the recall trial, vehicle 52±0.5%): 68±3% | recognition index (normal rats; 3 mg/kg (15.1 μmol/kg) p.o., 30 minutes before the three trials, vehicle 50±0.5%): 65±3% | duration of effect on recognition memory index (normal rats; 0.15 and 1.51 μmol/kg p.o., recall trial 6 h post administration): facilitated recognition memory index for up to 6 h after dosing | effect on recognition memory (enhancement of recognition index vs vehicle) (normal rats; 0.3 and 3 mg/kg p.o., 30 minutes before the three trials): facilitated recognition memory | EC50 ([1]; 86Rb+ efflux): 75 µM | Emax ([1]; percentage of maximal activation induced by L-nicotine): 23%
